Assays:
phagocytes = test system: phagocytes; set-up: method as in PMID 23504664; details: turpentine oil-induced inflammation, mean ± SD; cited from earlier work
[1] = Lipophilicity by reversed-phase thin-layer chromatography (RP-TLC), isopropanol-water mobile phase; assay type: physicochemical; details: RP-18F254s TLC, iso-propanol-water 45-65% (v/v); for RM0 (lipophilicity estimation parameter, intercept of RM = RM0 + bC): extrapolated to pure water
Method: Some of the parameters resulting from a RP-TLC may be associated to the lipophilic character of the analytes. The retention parameters (RM) are calculated by means of well-known Batte-Smith and Westall Equation (1): RM = log (1/RF − 1) (1)
Generally, the RM values determined by RP-TLC are linearly dependent on the concentration of the organic modifier (C) in the mobile phase Equation (2): RM = RM0 + bC (2) where b and RM0 are, respectively, the slope and the intercept of Equation (2). […] Additionally, it has been stated that not only the RM0, but also the slope, b, as a characteristic of the specific hydrophobic surface area of the compounds, can be used as an estimation of lipophilicity. The advantages of TLC methods consist in the small quantity of compounds needed for the determination, and the rapidity and simplicity of the method. Also, they are inexpensive, rapid and easy to perform.
Chromatography was performed on 20 × 20 cm RP-18F254s TLC precoated silica plates (Merck; Darmstadt, Germany). Solutions (1 mg/mL) of the tested compounds were prepared in iso-propanol, and 3 μL aliquots were spotted in duplicate on the plates by hand, 10 mm from the bottom edge and 20 mm apart. The mobile phases were composed of the iso-propanol-water binary mixtures, with a varying content of organic modifier between 45% and 65% (v/v) in 5% increments, as the study compounds differed considerably in their retention. Chromatography was performed in a normal developing chamber at room temperature, the developing distance being 10 cm. The chromatography chamber was saturated with the mobile phase for 30 min before use. After the development (30–60 min), the plates were air dried at room temperature and examined under a UV lamp (λ = 254 nm), and the RF (retardation factor) values were measured manually by a digital caliper. The experiments were performed in triplicate.

[2] = test system: nitric oxide (NO) synthesis; set-up: method as in PMID 23504664; unit not given here; details: turpentine oil-induced inflammation, mean ± SD; cited from earlier work
oxidative stress = test system: oxidative stress; set-up: method as in PMID 23504664; details: turpentine oil-induced inflammation, mean ± SD; cited from earlier work
[3] = test system: turpentine oil-induced inflammation; set-up: method as in PMID 23504664; Leukocytes (L, leukocytes count):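 lower leukocyte count means stronger anti-inflammatory effect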; details: mean ± SD; cited from earlier work

Compound	PA (phagocytic activity) (phagocytes)	PI (phagocytosis index) (phagocytes)	b (slope of RM = RM0 + bC, specific hydrophobic surface area) [1]	RM0 (lipophilicity estimation parameter, intercept of RM = RM0 + bC) [1]	NO (nitric oxide synthesis) [2]	OSI (oxidative stress index) (oxidative stress)	TAR (total antioxidant response) (oxidative stress)	TOS (total oxidative status) (oxidative stress)	Leukocytes (L, leukocytes count) [3]	PMN (polymorphonuclear leukocytes, differential leucocyte count) [3]
Cc1nc(-c2ccccc2)sc1C(=O)NNC(=S)Nc1ccccc1 [Th-1]	18.5 ± 1.8	21.5 ± 4.6%	−2.627	1.369	50.479 ± 5.7	4.66 ± 2.2	1.108 ± 0.003	51.622 ± 6.2	5587.5 ± 455	60.4 ± 4.1%
Cc1ccc(-c2nc(C)c(C(=O)NNC(=S)Nc3ccccc3)s2)cc1 [Th-2]	22.5 ± 2.8	21.5 ± 2.8%	−2.853	1.595	51.827 ± 6.3	5.76 ± 5.3	1.099 ± 0.003	63.265 ± 5.4	6543 ± 271	60.6 ± 3.1%
Cc1nc(-c2ccc(Br)cc2)sc1C(=O)NNC(=S)Nc1ccccc1 [Th-3]	31 ± 1.8	21.5 ± 0.9%	−2.739	1.600	52.838 ± 8.9	3.62 ± 2.9	1.095 ± 0.003	39.601 ± 7.9	4987 ± 133	63.6 ± 3.9%
CNC(=S)NNC(=O)c1sc(-c2ccccc2)nc1C [Th-4]	29 ± 1.8	22.5 ± 3.5%	−2.355	0.986	47.501 ± 2.8	4.49 ± 3.6	1.109 ± 0.006	49.823 ± 3.6	12,218.8 ± 1341	82.8 ± 4.1%
CNC(=S)NNC(=O)c1sc(-c2ccc(C)cc2)nc1C [Th-5]	22.5 ± 0.9	19.5 ± 2.3%	−2.502	1.161	47.024 ± 8.9	4.7 ± 3.1	1.096 ± 0.001	51.557 ± 17.1	11,633.3 ± 154	59.8 ± 3.6%
CNC(=S)NNC(=O)c1sc(-c2ccc(Br)cc2)nc1C [Th-6]	18 ± 1.5	13 ± 3.2%	−2.740	1.398	50.591 ± 9.1	3.93 ± 2.6	1.097 ± 0.006	43.108 ± 5.6	6056.25 ± 862	70.4 ± 2.9%
C=CCNC(=S)NNC(=O)c1sc(-c2ccccc2)nc1C [Th-7]	53.5 ± 3.5	20.5 ± 0.9%	−2.484	1.195	54.355 ± 6.2	3.98 ± 3.8	1.107 ± 0.003	44.073 ± 3.8	6356.25 ± 66	73.2 ± 4.0%
C=CCNC(=S)NNC(=O)c1sc(-c2ccc(C)cc2)nc1C [Th-8]	21 ± 1.1	21.5 ± 0.9%	−2.685	1.398	48.793 ± 5.5	5.03 ± 4.1	1.107 ± 0.002	55.664 ± 4.2	5718.75 ± 104	66.6 ± 1.0%
Cc1nc(-c2ccccc2)sc1-c1nnc(S)n1-c1ccccc1 [Th-9]	20.5 ± 0.9	21 ± 7.0%	−2.630	1.479	65.479 ± 4.8	6.25 ± 5.2	1.101 ± 0.001	68.780 ± 16.2	9000 ± 428	67.4 ± 3.0%
Cc1ccc(-c2nc(C)c(-c3nnc(S)n3-c3ccccc3)s2)cc1 [Th-10]	23 ± 1.1	20.5 ± 0.9%	−2.948	1.754	65.142 ± 5.3	4.95 ± 5.4	1.095 ± 0.003	54.164 ± 5.4	5606.25 ± 154	61.2 ± 3.4%
Cc1nc(-c2ccc(Br)cc2)sc1-c1nnc(S)n1-c1ccccc1 [Th-11]	19.75 ± 2.4	21 ± 1.1%	−3.133	2.020	66.799 ± 5.9	6.08 ± 4.9	1.092 ± 0.003	66.394 ± 8.9	11,137.5 ± 483	86.4 ± 2.6%
Cc1nc(-c2ccccc2)sc1-c1nnc(S)n1C [Th-12]	20 ± 1.5	22.5 ± 3.5%	−2.463	1.305	70.029 ± 6.4	8.27 ± 4.2	1.095 ± 0.004	90.592 ± 4.2	8456.25 ± 565	78.6 ± 1.0%
Cc1ccc(-c2nc(C)c(-c3nnc(S)n3C)s2)cc1 [Th-13]	27.5 ± 0.9	25.5 ± 2.8%	−2.672	1.565	75.451 ± 6.9	4.63 ± 3.6	1.1 ± 0.012	50.886 ± 5.6	10,172 ± 331	80.8 ± 3.0%
Cc1nc(-c2ccc(Br)cc2)sc1-c1nnc(S)n1C [Th-14]	23.5 ± 0.9	28 ± 2.1%	−2.659	1.630	86.04 ± 2.9	6.1 ± 4.7	1.097 ± 0.006	66.876 ± 9.7	10,172 ± 520	75.4 ± 4.5%
C=CCn1c(S)nnc1-c1sc(-c2ccccc2)nc1C [Th-15]	29 ± 3.2	24 ± 4.3%	−2.905	1.664	71.630 ± 5.9	6.32 ± 4.4	1.094 ± 0.006	69.171 ± 4.4	9982.5 ± 81	77.4 ± 5.1%

From article PMC6332165, “Study of the Relationships between the Structure, Lipophilicity and Biological Activity of Some Thiazolyl-carbonyl-thiosemicarbazides and Thiazolyl-azoles” (Molecules, 2015)
